# Biological target: T1, human PAD4 (Homo sapiens, UniProt Q9UM07)
# T1 construct: human PAD4 (NM_012387), A2-P663, was PCR amplified; His-SUMO (N, cleaved yes); made in house; host or cells: E. coli BL21(DE3)
# Assay: In vitro PAD4 BAEE biochemical assay
# Settings: BAEE substrate 3 mM, 5 nM PAD4, 2 mM calcium chloride; geometric mean of multiple experiments
# Procedure, shortened: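 PAD4 5 nM, CaCl2 2 mM, BAEE 3 mM final; 50 mM MOPS pH 7.6, 50 mM NaCl, 0.05% Tween-20, 2 mM DTT. Cpd + enzyme 30 min 25 °C; substrate 2 h 25 °C; EDTA stop; OPA detection 1 h. IC50 4-parameter fit.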
# T1 sequence (Q9UM07 2-663): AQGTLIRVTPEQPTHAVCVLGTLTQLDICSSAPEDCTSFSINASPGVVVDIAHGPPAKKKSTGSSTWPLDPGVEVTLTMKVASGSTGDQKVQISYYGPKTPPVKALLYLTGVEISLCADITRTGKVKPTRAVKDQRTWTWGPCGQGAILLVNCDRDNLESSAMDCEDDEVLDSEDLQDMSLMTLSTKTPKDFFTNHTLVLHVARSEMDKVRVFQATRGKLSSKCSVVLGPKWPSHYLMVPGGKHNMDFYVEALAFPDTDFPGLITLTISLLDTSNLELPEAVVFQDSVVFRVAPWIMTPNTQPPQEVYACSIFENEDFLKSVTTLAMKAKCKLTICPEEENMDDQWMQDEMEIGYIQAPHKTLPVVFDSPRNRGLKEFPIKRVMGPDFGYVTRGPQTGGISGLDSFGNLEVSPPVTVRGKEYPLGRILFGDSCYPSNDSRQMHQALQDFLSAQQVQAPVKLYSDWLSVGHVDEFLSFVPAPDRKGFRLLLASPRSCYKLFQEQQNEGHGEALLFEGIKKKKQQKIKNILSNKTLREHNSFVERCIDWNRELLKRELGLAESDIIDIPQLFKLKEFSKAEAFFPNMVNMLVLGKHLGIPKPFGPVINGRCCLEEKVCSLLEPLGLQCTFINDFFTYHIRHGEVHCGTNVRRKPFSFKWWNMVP
row,Structure (SMILES),IC50 [µM]
1,"C[C@H]1NC(=O)c2ccc(Cl)nc2CCCCCn2c(-c3nc4cc(C(=O)N5C[C@H](N)[C@@H]6CC[C@H]5C6)cc(F)c4n3[C@H]3C[C@H]3F)cc3ccc1nc32 [Example 846, (2~{R})-17-[5-[(1~{S),4~{R}, 5~{R})-4-amino-2-azabicyclo [3.2.1]octane-2-carbonyl]-7-fluoro-1-[(1~{S},2~{R})-2-fluorocyclopropyl]benzimidazol-2-yl]-8-chloro-2-methyl-3,9,16,22-tetrazatetracyclo[14.5.2.0^ {5,10).0^{19,23}]tricosa-1(22),5(10),6,8,17,19(23),20-heptaen-4-one]",0.027
2,"COc1cc(C(=O)N2C[C@H](N)[C@@H]3CC[C@H]2C3)cc2nc(-c3cc4ccc5nc4n3CCCCCc3nc(C(F)(F)F)ccc3C(=O)N[C@@H]5C)n(C3CC3)c12 [Example 847, (2~{R})-17-[5-[(1~{S},4~{R}, 5~{R})-4-amino-2-azabicyclo [3.2.1]octane-2-carbonyl]-1-cyclopropyl-7-methoxy-benzimidazol-2-yl]-2-methyl-8-(trifluoromethyl)-3,9,16,22-tetrazatetracyclo[14.5.2.0^ {5,10}.0^{19,23}]tricosa-1(22),5(10),6,8,17,19(23),20-heptaen-4-one]",0.082
3,"COc1cc(C(=O)N2CC[C@@H](OC)[C@@H](N)C2)cc2nc(-c3cc4ccc5nc4n3CC(F)(F)CCC[C@@H]3C[C@H]3C(=O)N[C@@H]5C)n(C)c12 [Example 848, (2~{R},5~{R},7~{R})-14-[5-[(3~{S},4~{R})-3-amino-4-methoxy-piperidine-1-carbonyl]-7-methoxy-1-methyl-benzimidazol-2-yl]-11,11-difluoro-2-methyl-3,13,19-triazatetracyclo[11.5.2.0^ {5,7}.0^{16,20}]icosa-1(19),14,16(20),17-tetraen-4-one]",0.033
4,"COc1cc(C(=O)N2C[C@H](N)CC[C@@H]2C)cc2nc(-c3cc4ccc5nc4n3CC(F)(F)CCC[C@@H]3C[C@H]3C(=O)N[C@@H]5C)n(C)c12 [Example 849, (2~{R},5~{R},7~{R})-14-[5-[(2~{S},5~{R})-5-amino-2-methyl-piperidine-1-carbonyl]-7-methoxy-1-methyl-benzimidazol-2-yl]-11,11-difluoro-2-methyl-3,13,19-triazatetracyclo[11.5.2.0^ {5,7}.0^{16,20}]icosa-1(19), 14,16(20),17-tetraen-4-one]",0.015
5,"COc1cc(C(=O)N2CC[C@@H](OC(F)F)[C@@H](N)C2)cc2nc(-c3cc4ccc5nc4n3CC(F)(F)CCC[C@@H]3C[C@H]3C(=O)N[C@@H]5C)n(C)c12 [Example 850, (2~{R},5~{R},7~{R})-14-[5-[(3~{S},4~{R})-3-amino-4-(difluoromethoxy)piperidine-1-carbonyl]-7-methoxy-1-methyl-benzimidazol-2-yl]-11,11-difluoro-2-methyl-3,13,19-triazatetracyclo[11.5.2.0^ {5,7}.0^{16,20}]icosa-1(19), 14,16(20),17-tetraen-4-one]",0.064
6,"COc1cc(C(=O)N2C[C@H](N)C[C@@H](F)C2)cc2nc(-c3cc4ccc5nc4n3CC(F)(F)CCC[C@@H]3C[C@H]3C(=O)N[C@@H]5C)n(C)c12 [Example 851, (2~{R},5~{R},7~{R})-14-[5-[(3~{R},5~{R})-3-amino-5-fluoro-piperidine-1-carbonyl]-7-methoxy-1-methyl-benzimidazol-2-yl]-11,11-difluoro-2-methyl-3,13,19-triazatetracyclo[11.5.2.0^ {5,7}.0^{16,20}]icosa-1(19), 14,16(20),17-tetraen-4-one]",0.02
7,"COc1cc(C(=O)N2CCC[C@@H](N)[C@H]2C)cc2nc(-c3cc4ccc5nc4n3CC(F)(F)CCC[C@@H]3C[C@H]3C(=O)N[C@@H]5C)n(C)c12 [Example 852, (2~{R},5~{R},7~{R})-14-[5-[(2~{R},3~{R})-3-amino-2-methyl-piperidine-1-carbonyl]-7-methoxy-1-methyl-benzimidazol-2-yl]-11,11-difluoro-2-methyl-3,13,19-triazatetracyclo[11.5.2.0^ {5,7).0^{16,20}]icosa-1(19), 14,16(20),17-tetraen-4-one]",0.016
